Reference: patent publication US10168342B2, “Lipid probes and uses thereof” (THE SCRIPPS RESEARCH INSTITUTE, priority 2015, dated 2019)

Assays:
[1] = tested on: NAEs, NATs, AA and 2-AG in Neuro2a cells; assay: Targeted LC-MS (MRM) analysis of lipids from Neuro2a cells; type: cell-based, mouse; details: Neuro2a cells, 10 μM (PF-7845 1 μM)
Procedure: Discovery metabolite profiling was performed as described by Saghatelian et al., “Assignment of endogenous substrates to enzymes by global metabolite profiling,” Biochemistry 43:14332-14339 (2004) with several modifications. […] The media from the cells was removed and cells were washed with DPBS (2×5.0 mL) before adding freshly prepared media solutions containing vehicle or compound. After incubating for 6 h at 37° C. and subsequent removal of the media, the cells were harvested by scrapping in cold DPBS (3 mL) and pelleted by centrifugation in glass vials. The pellets were washed once with cold DPBS (3 mL) and then cold […] (2:1) (3 mL) was added. After vortexing, the vials were centrifuged (3,000×g, 10 min, 4° C.) and the bottom (organic) layer was transferred to a new glass vial and concentrated under a stream of N2. Samples were stored at −80° C. until the day of analysis when they were reconstituted in Mobile Phase A (100 μL, see below).
Neuro2a cells were treated and lipids extracted as described above. A mixture of internal standards [AEA-d4 (10 pmol), 2-AG-d5 (100 pmol), AA-d8 (100 pmol), PEA-d4 (100 pmol), PDA (1.0 nmol)] was added to the organic phase prior to extracting cells. NAEs, MAGs, AA and NATs were analyzed similarly to previously described methods (Saghatelian et al., 2004). The following MS parameters were used to measure the indicated metabolites by MRM (precursor ion, product ion, collision energy, polarity): NAE 20:4 (AEA) (348, 62, 12, positive), AEA-d4 (352, 66, 12, positive), NAE 16:0 (PEA) (300, 62, 12, positive), PEA-d4 (304, 62, 12, positive), NAE 18:0 (328, 62, 12, positive), NAE 18:1 (326, 62, 12, positive), NAE 18:2 (324, 62, 12, positive), 2-AG (379, 287, 8, positive), 2-AG-d5 (384, 287, 8, positive), AA (303, 259, 4, negative), AA-d8 (311, 267, 4, negative), NAT 20:4 (410, 80, 35, negative), NAT 22:1 (444, 80, 35, negative), NAT 24:1 (472, 80, 35, negative), NAT 24:0 (474, 80, 35, negative), NAT 26:0 (502, 80, 35, negative). The indicated lipids were quantified by measuring the area under the peak relative to an internal standard (AEA-d4 for AEA and NAE 18:2; PEA-d4 for PEA, NAE 18:1 and NAE 18:0; 2-AG-d5 for 2-AG; AA-d8 for AA and 20:4 NAT; PDA for all other NATs).

[2] = biological target: T1, human NUCB1 (Homo sapiens, UniProt Q02818); assay: FluoPol assay / high throughput screen with Fl-AEA and recombinant NUCB1; type: binding; details: for suppression of the NUCB1-FluoPol signal (blockade of Fl-AEA binding): competitor lipids, recombinant NUCB1
T1 construct: made in house; host or cells: Escherichia coli BL21(DE3)
T1 sequence (Q02818 27-461): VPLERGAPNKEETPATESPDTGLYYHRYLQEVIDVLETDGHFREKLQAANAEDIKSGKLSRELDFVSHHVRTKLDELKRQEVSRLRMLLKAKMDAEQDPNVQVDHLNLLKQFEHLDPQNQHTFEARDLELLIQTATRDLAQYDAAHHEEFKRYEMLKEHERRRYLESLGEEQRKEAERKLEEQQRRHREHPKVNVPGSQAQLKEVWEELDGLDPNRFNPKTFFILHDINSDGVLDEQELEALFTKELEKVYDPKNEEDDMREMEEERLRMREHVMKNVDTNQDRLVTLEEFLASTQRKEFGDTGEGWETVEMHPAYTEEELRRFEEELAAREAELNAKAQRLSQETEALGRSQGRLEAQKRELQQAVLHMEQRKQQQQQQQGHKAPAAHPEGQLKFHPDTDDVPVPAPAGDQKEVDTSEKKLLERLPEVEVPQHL
Procedure: FluoPol conditions were optimized by screening various concentrations of Fl-AEA, hNUCB1, CaCl2 and Pluronic F-127 against positive and negative controls. Arachidonic acid (20 μM final) was used as a positive control, and DMSO as a negative. Additionally, protein-free controls were used to normalize for background signal. […] The Z′-factor for these conditions was determined to be 0.54, indicating a high signal to noise assay.
A 10 μL solution of hNUCB1 (1 μM), Fl-AEA (0.5 μM), CaCl2 (20 μM), and Pluronic F-127 (0.01%) was added to a Greiner 384-well plate. Additionally, in some wells protein was omitted to serve as a blank control for background signal. To the protein containing wells 16,000 compounds (50 nL in DMSO, 2 mM) from the Maybridge Hitfinder library were added by a pin-tool robot. Additionally, on each plate to some wells arachidonic acid (20 μM final) or DMSO were added as positive and negative controls to allow normalization between plates. The plates were allowed to incubate for 5 minutes at room temperature, then fluorescence polarization was measured by measuring fluorescence intensity through polarized 595 nm filters. Hits were selected based on maximal probe competition.

[3] = biological target: T2, NENF (Homo sapiens, UniProt Q9UMX5); assay: In vitro gel-based competition of AEA-DA probe labeling of NENF; type: binding; details: NENF-transfected HEK293T lysates; for competition of AEA-DA probe labeling of recombinant NENF: competitors 1-100 μM
T2 construct: Full-length cDNAs encoding for the each protein of interest were subcloned into pcDNA3.1 myc-His A; Myc (myc-His of pcDNA3.1 myc-His A); expressed in transfected cells; host or cells: HEK293T (lysates)
Procedure: Full-length cDNAs encoding for the each protein of interest were subcloned into pcDNA3.1 myc-His A (Invitrogen) or used directly for transfections if available in a eukaryotic expression vector. HEK293T cells were grown to ˜70% confluence under standard growth conditions before adding the appropriate cDNA [control cells (“mock”) received an equal amount of empty pcDNA3.1 myc-His A vector] and FuGENE 6 or X-tremeGENE HP (Roche) transfection reagent according to the manufacturer's instructions. Cells were incubated for 36-48 hours before labeling in situ or harvesting for in vitro experiments.
Cell lysates (1.0 mg/mL), the indicated lipid probe (2.5 or 5 μM) and, for recombinant NUCB1 competition experiments, purified hNUCB1 (250 nM) and CaCl2 (100 μM) were mixed on ice. […] The samples were then irradiated with UV light and subjected to previously described click chemistry conditions. As before, each reaction was quenched with 4×SDS loading buffer (17 μL), and proteins were resolved using SDS-PAGE (10% acrylamide gel) and analyzed by in-gel fluorescent scanning on a Hitachi FMBIO-II flatbed fluorescence scanner. NUCB1 competition was quantitatively assessed by measuring the fluorescent intensity of the corresponding gel band using ImageJ 1.48v and normalizing this value by a non-competed gel band to control for loading differences.
(§1) Metabolite data are shown as mean±SEM (n=3-5/group). Differences between two groups were determined using Student's t test (unpaired, two-tailed) and significance was denoted for P values<0.05.

[4] = biological target: T1, human NUCB1; assay: In vitro gel-based competition of AEA-DA probe labeling of NUCB1; type: binding; details: AEA-DA 5.0 μM, lipids 20×, NUCB1-transfected HEK293T lysates
Procedure: Human NUCB1 lacking the N-terminal signal sequence (M1-A26) was subcloned into pET45b(+) vector (Novagen) using the following PCR primers for amplification: 5′-CATCAATTGTGTGCCCCTGGAGAGAG-3′ and 5′-AGCAAGCTTTACAGATGTTGGGGCACC-3′. Following transformation of Escherichia coli strain BL21(DE3) with hNucb1ΔSSpET45b(+), a single colony was isolated and grown in Terrific Broth containing carbenicillin (100 mg/L) at 37° C. to an OD600 of 0.8. Protein expression was induced with IPTG (1.0 mM) and the cells were incubated at 20° C. with shaking overnight. After centrifugation, cells pellets were resuspended in cold buffer containing HEPES (0.05M), NaCl (0.03 M), imidazole (5.0 mM), DNase (0.1 mg/mL), MgCl2 (1.0 mM), CaCl2 (1.0 mM) and EDTA-free Complete Protease Inhibitor Cocktail and lysed using a microfluidizer. […] The suspension was applied to a column and the retained resin was washed with HEPES buffer containing 500 mM NaCl until the eluent was clean of DNA and protein (A280/260) and then with HEPES buffer containing 10 mM imidazole (5 mL/1 mL resin). Protein was then slowly eluted with HEPES buffer containing 50 mM imidazole in 1.0 mL fractions and the combined fractions containing hNUCB1 were passed through a Sephadex G-25M column to remove imidazole and concentrated in an Amicon centrifugal filter device (Millipore). These conditions produced hNUCB1 at approximately 10 mg/L of culture; however, several lower molecular weight fragments were also present in this preparation. hNUCB1 was further purified by size exclusion chromatography.
Cell lysates (1.0 mg/mL), the indicated lipid probe (2.5 or 5 μM) and, for recombinant NUCB1 competition experiments, purified hNUCB1 (250 nM) and CaCl2 (100 μM) were mixed on ice. DMSO or competitors were then added to the proteome mixture (50 μM) in 96-well plates and each sample was incubated for 15 min at 37° C. The samples were then irradiated with UV light and subjected to previously described click chemistry conditions. As before, each reaction was quenched with 4×SDS loading buffer (17 μL), and proteins were resolved using SDS-PAGE (10% acrylamide gel) and analyzed by in-gel fluorescent scanning on a Hitachi FMBIO-II flatbed fluorescence scanner. NUCB1 competition was quantitatively assessed by measuring the fluorescent intensity of the corresponding gel band using ImageJ 1.48v and normalizing this value by a non-competed gel band to control for loading differences.
as §1

T2 sequence (Q9UMX5 32-172, species assumed): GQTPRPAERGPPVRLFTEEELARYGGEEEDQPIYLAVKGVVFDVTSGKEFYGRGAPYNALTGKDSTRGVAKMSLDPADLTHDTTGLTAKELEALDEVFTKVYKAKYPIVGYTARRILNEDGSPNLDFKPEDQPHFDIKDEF

SMILES | suppression of the NUCB1-FluoPol signal (blockade of Fl-AEA binding) [2] | also measured
O=C(Nc1cccnn1)N1CCC(=Cc2cccc(Oc3ccc(C(F)(F)F)cn3)c2)CC1 [PF-7845, reference compound] | – | 2-AG levels [1]: greater degree; cellular concentrations of NAEs and NATs ([1]; 6 h): elevated
CCCCC[C@H](O)/C=C/C1=C(CCCCCCC(=O)O)C(=O)CC1 [prostaglandin B1] | minimal blockade | –
CCCCC[C@H](O)/C=C/[C@@H]1[C@@H](C/C=C\CCCC(=O)NCCO)[C@@H](O)C[C@H]1O [PGF2α-EA] | minimal blockade | –
CCCCC[C@H](O)/C=C/[C@H]1C(=O)C[C@H](O)[C@@H]1C/C=C\CCCC(=O)O [prostaglandin D2] | minimal blockade | –
CCCCC/C=C\C/C=C\C/C=C\C/C=C\CCCC(=O)NCCCCCNC(=O)c1ccc(-c2c3ccc(=[N+](C)C)cc-3oc3cc(N(C)C)ccc23)c(C(=O)[O-])c1 [Fl-AEA, 2-(6-(Dimethylamino)-3-(dimethylmninio)-3H-xanthen-9-yl)-5-((5-((5Z,8Z,11Z,14Z)-icosa-5,8,11,14-tetraenamido)pentyl)carbamoyl)benzoate] | – | binding to recombinant, purified human NUCB1 (FluoPol signal) ([2]; Fl-AEA 0.5 μM, NUCB1 1.0 μM): substantial increase in fluorescence polarization (FluoPol) signal
CC(C)CCC[C@@H](C)[C@H]1CC[C@H]2[C@@H]3CC=C4C[C@@H](O)CC[C@]4(C)[C@H]3CC[C@]12C [cholesterol] | minimal blockade | –
C=Cc1c(C)c2cc3[n-]c(cc4nc(cc5nc(cc1[n-]2)C(C)=C5CCC(=O)O)C(CCC(=O)O)=C4C)c(C)c3C=C.[Cl-].[Fe+3] [hemin] | – | IC50 ([3]; read-out: IC50, inhibition of AEA-DA labeling of NENF): 2000 nM; competition of AEA-DA probe labeling of recombinant NENF [3]: inhibited in a concentration-dependent manner
CCCCC/C=C\C/C=C\C/C=C\C/C=C\CCCC(=O)O [AA, Arachidonic acid] | Concentration-dependent suppression | competition of AEA-DA probe labeling of recombinant NENF [3]: competitively blocked; competition of AEA-DA probe labeling of recombinant NUCB1 by lipids [4]: blocked
CCCCC[C@H](O)/C=C/[C@H]1C=CC(=O)[C@@H]1CCCCCCC(=O)O [prostaglandin A1] | minimal blockade | –
CCCCC[C@H](O)/C=C/[C@H]1C(=O)C[C@H](O)[C@@H]1C/C=C\CCCC(=O)NCCO [PGD2-EA] | minimal blockade | –
CCCCCCCCCCCCC/C=C/[C@@H](O)[C@@H](N)CO [sphingosine] | minimal blockade | –
CCCCC/C=C\C/C=C\C/C=C\C/C=C\CCCC(=O)OC(CO)CO [2-AG] | Concentration-dependent suppression | competition of AEA-DA probe labeling of recombinant NUCB1 by lipids [4]: blocked
